These results are taken from ChEMBL document CHEMBL1152959, “Design, synthesis and dopamine D4 receptor binding activities of new N-heteroaromatic 5/6-ring Mannich bases” (Bioorg Med Chem, 2009).

Assay [1] deals with D(1A) dopamine receptor (Sus scrofa) (UniProt P50130). The experiment in a line: Displacement of [3H]SCH23390 from pig dopamine D1 receptor at 100 nM. On the technique in general: Loss of bound radioactivity is the signal in a displacement assay; it reports binding, not function.
Assay [2] deals with T1, D(2) dopamine receptor (Homo sapiens, UniProt P14416). The experiment in a line: Displacement of [3H]spiperone from human cloned dopamine D2 long receptor expressed in CHO cells at 100 nM. In kind it is cell-based.
T1 sequence (P14416 whole entry): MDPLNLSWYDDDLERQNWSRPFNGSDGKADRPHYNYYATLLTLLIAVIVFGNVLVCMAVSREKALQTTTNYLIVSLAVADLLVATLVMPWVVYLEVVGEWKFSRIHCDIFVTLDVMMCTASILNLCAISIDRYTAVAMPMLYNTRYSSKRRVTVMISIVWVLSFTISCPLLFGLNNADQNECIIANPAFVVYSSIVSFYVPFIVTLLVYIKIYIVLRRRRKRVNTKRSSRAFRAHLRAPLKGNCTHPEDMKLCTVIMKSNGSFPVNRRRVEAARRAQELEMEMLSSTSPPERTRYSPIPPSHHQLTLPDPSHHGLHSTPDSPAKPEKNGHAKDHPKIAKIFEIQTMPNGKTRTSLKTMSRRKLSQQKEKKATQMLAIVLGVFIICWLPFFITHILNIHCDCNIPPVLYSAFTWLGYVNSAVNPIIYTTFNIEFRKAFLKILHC
Assay [3] addresses T2, D(4) dopamine receptor (Homo sapiens) (UniProt P21917).
T2 sequence (whole entry): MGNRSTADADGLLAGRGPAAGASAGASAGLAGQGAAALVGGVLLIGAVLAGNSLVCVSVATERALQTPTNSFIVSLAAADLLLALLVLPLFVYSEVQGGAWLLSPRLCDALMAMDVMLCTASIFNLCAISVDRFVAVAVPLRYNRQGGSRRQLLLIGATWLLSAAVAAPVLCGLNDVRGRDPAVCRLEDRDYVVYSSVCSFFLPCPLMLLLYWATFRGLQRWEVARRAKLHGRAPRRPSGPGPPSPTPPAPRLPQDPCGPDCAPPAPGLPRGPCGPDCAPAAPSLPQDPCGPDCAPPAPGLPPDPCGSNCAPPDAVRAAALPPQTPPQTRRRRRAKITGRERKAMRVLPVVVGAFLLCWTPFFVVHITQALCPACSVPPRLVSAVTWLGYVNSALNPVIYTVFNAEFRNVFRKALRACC
Kind of assay: Displacement of [3H]spiperone from human cloned dopamine D4.4 receptor expressed in CHO cells at 100 nM. It counts as cell-based.

The next assay concerns the target T3, D(4) dopamine receptor (Homo sapiens, UniProt P21917).
T3 sequence (P21917 whole entry): T2 sequence (whole entry)
Kind of assay: Displacement of [3H]spiroperidol from human cloned dopamine D4.4 receptor expressed in CHO cells. In kind it is cell-based.

For another assay, the target named is D(1A) dopamine receptor (Bos taurus, UniProt Q95136).
D(1A) dopamine receptor, sequence (Q95136 whole entry): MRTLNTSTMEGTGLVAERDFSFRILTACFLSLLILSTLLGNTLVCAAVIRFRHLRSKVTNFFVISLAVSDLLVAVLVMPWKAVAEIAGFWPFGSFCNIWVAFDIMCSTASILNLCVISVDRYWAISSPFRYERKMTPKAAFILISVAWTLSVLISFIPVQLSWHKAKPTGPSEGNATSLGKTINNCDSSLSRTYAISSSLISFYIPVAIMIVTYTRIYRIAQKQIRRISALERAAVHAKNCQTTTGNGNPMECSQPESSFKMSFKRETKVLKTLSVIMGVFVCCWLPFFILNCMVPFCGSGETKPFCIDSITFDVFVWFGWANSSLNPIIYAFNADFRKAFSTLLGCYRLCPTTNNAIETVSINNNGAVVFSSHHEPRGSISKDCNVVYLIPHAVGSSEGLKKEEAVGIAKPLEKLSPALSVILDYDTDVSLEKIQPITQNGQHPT
Assay [4] deals with T1, D(2) dopamine receptor. The experiment in a line: biochemical.
Description: Displacement of [3H]SCH23390 from human cloned dopamine D2 long receptor expressed in CHO cells
The target of assay [5] is T1, D(2) dopamine receptor. Kind of assay: biochemical. This is another data set of the same source.
Description: Displacement of [3H]spiroperidol from human cloned dopamine D2 short receptor expressed in CHO cells
Another assay addresses D(3) dopamine receptor (Homo sapiens, UniProt P35462). Kind of assay: biochemical.

The structures appear in SMILES notation.

D(1A) dopamine receptor (Sus scrofa), sequence (P50130 whole entry): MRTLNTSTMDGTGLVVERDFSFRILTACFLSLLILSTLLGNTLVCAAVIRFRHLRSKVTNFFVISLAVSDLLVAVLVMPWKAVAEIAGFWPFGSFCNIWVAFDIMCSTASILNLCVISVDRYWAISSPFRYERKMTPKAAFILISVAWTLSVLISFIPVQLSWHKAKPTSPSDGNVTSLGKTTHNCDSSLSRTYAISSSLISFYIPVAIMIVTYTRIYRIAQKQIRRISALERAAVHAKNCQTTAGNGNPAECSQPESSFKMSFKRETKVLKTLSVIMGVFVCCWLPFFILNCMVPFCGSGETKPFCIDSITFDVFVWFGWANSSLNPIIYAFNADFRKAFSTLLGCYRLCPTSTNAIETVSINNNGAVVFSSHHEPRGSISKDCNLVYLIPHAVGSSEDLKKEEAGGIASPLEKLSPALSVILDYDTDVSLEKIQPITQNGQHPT
D(3) dopamine receptor, sequence (P35462 whole entry): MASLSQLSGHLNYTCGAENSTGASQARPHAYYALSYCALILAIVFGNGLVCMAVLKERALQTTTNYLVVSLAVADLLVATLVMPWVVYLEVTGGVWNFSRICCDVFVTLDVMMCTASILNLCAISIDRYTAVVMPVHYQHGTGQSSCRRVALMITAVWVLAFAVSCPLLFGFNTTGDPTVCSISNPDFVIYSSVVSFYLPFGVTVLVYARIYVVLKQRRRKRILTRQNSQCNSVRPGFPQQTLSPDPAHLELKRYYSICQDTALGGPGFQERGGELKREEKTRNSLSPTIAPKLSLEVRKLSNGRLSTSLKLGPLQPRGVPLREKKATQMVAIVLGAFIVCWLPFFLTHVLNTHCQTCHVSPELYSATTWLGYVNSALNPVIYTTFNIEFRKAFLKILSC
Description for D(3) dopamine receptor: Displacement of [3H]spiroperidol from human cloned dopamine D3 receptor expressed in CHO cells

The term Ki denotes a dissociation constant, usually derived from enzyme kinetics or from competition with a known ligand. Lower therefore signals higher affinity. Consider `COc1ccc(N2CCN(Cc3c(C)nc4cc(C)ncn34)CC2)cc1`, for which the Activity in assay [1] is 0%; at D(2) dopamine receptor [2], 0%; in assay [3], 60%. Moreover, the Ki on D(4) dopamine receptor came out at 12 nM; at D(1A) dopamine receptor, 27 µM; at D(2) dopamine receptor [4] it was 9.1 µM; on D(2) dopamine receptor [5], 13 µM; at D(3) dopamine receptor it was 13 µM.
